# Test results as given in ChEMBL document CHEMBL1156829 (Proc Natl Acad Sci U S A, 2008).
# pEC50: −log10 of the molar value.
# Legend:
# [1] = NOVARTIS: Cytotoxicity against human hepatocellular carcinoma cell line (Huh7); format: toxicity, cell-based, Huh-7; conditions: Huh7 cells (hepatocellular carcinoma cell line)
# Plasmodium falciparum [2] = assay: NOVARTIS: Inhibition of Plasmodium falciparum W2 (drug-resistant) proliferation in erythrocyte-based infection assay; format: functional, organism-based; conditions: Plasmodium falciparum, W2; read-out: EC50
# Plasmodium falciparum [3] = assay: NOVARTIS: Inhibition of Plasmodium falciparum 3D7 (drug-susceptible) proliferation in erythrocyte-based infection assay; format: functional, organism-based; conditions: Plasmodium falciparum, 3D7
SMILES,CC50 [1] [nM],pEC50 (Plasmodium falciparum [2]),pEC50 (Plasmodium falciparum [3])
CCOc1ccc(Nc2cc(C)nc(Nc3ccc(OCC)cc3)n2)cc1,9850,6.91,6.98
COc1ccc(CN(Cc2cc3cccc(C)c3nc2N2CCCC(O)C2)C(=O)c2ccc(OC)c(OC)c2)cc1 (stereo not given),> 100000,5.92,5.85
COc1ccc(CN(Cc2ccc(C(C)C)cc2)S(=O)(=O)c2ccc(S(=O)(=O)N3CCN(c4ccccc4F)CC3)cc2)cc1,> 100000,5.92,< 4.90
Cc1cc(Nc2ccccc2)nc(Nc2ccccc2)n1,20000,6.61,6.59
Cc1ccc(CNC(=O)C2CNCC2c2ccc(C(F)(F)F)cc2)cc1 (stereo not given),> 10000,6.92,6.61
Oc1ccc(Br)cc1CN1CCN(c2ccccn2)CC1,34600,6.36,5.50
CC(=O)N(C1=C(N(C)C)C(=O)c2ccccc2C1=O)c1ccc(Cl)cc1,5460,7.16,7.50
CCc1ccccc1N(CC(=O)NC1CCCCC1)C(=O)CCC(=O)Nc1ccccn1,> 100000,5.90,6.08
CN1C=C(c2ccc3ccccc3n2)C(c2c[nH]c3ccccc23)c2ccccc21 (stereo not given),> 100000,5.92,5.94
COc1cc2nc(NCCCOC(C)C)n3nc(-c4ccccc4)nc3c2cc1OC,> 100000,5.92,6.10
Nc1ccc2nc3ccc(N)cc3[s+]c2c1,11600,6.84,7.07
CCOc1ccc(C(=O)C(C)[n+]2cc(-c3ccc(Cl)cc3)n3c2CCC3)cc1 (stereo not given),> 78300,6.01,5.83
O=c1[nH]c(SCC(O)c2ccc(Cl)c(Cl)c2)nc2sc3ccccc3c12 (stereo not given),> 10000,6.91,6.18
CN1CCN=C1c1ccc(NC(=O)Nc2ccc(NC(=O)Nc3ccc(C4=NCCN4C)cc3)cc2)cc1,> 10000,6.91,6.80
Cc1ccc(-c2cc(N3CCCC3CO)n3nccc3n2)cc1 (stereo not given),> 100000,5.90,5.94
COc1ccc(CNCCN2CCN(c3ccc(C)cc3)C[C@@H]2c2ccccc2)cc1,> 10000,6.90,6.04
COc1cc(OC)cc(C(=O)NCC2Cc3cc(Cl)cc(-c4ccncc4)c3O2)c1 (stereo not given),44100,6.27,6.43
N#Cc1cccc(C=CC(=O)O)c1,> 100000,5.91,< 4.90
Oc1ccc(-c2ccc3c(c2)OCO3)cc1CNC1CCN(Cc2ccccc2)CC1,29900,6.44,6.22
COc1ccc2c(c1)-c1c(ssc1=S)C(C)(C)N2C(=O)c1cccc(Cl)c1,> 100000,< 5.90,5.96
Cc1nc(-c2ccc[n+](C)c2)sc1C(=O)C=Cc1ccc(Cl)cc1,65200,6.10,6.47
O=C1CSC2=NCN(c3cccc(Cl)c3)CN12,> 100000,5.90,< 4.90
CCCOC(=O)CSc1nc(N)c(C#N)c(-c2ccco2)c1C#N,> 100000,5.91,5.72
COc1ccc(S(=O)(=O)N2CCCCC2C(=O)NC(CN2CCCC2)c2ccccc2)cc1 (stereo not given),> 10000,6.91,6.77
C1=C(c2ccccc2)CCN(c2ncnc3c2nc2n3CCCCC2)C1,> 85800,5.97,5.89
CCN(CC)CCCNCC(=O)N1c2ccccc2Sc2ccccc21,> 100000,5.90,< 4.90
Cc1ccc2nc(Nc3ncc4c(n3)CC(C)(C)CC4=O)nc(C)c2c1,> 100000,5.90,< 4.90
COc1ccc(Nc2nc(NCc3ccccc3)c3ccccc3n2)cc1,8670,6.97,6.67

SMILES,CC50 [1] [nM],pEC50 (Plasmodium falciparum [2]),pEC50 (Plasmodium falciparum [3])
COc1cc(C(=O)NC(c2cccs2)c2cc(Cl)c3cccnc3c2O)cc(OC)c1OC (stereo not given),> 100000,5.91,5.83
O=C(Nc1ccc2oc(-c3ccccc3F)nc2c1)c1ccc([N+](=O)[O-])o1,> 100000,5.90,< 4.90
Cc1ccc(Nc2cc(C)nc(NCc3ccccc3)n2)cc1,10500,6.88,6.95
Cc1ccc(-c2noc(C3CCN(C(=O)Nc4ccc(C#N)cc4)CC3)n2)o1,> 100000,5.90,5.88
Cc1cc(C)c(S(=O)(=O)N2CCCC2CNC(=O)c2cccc([N+](=O)[O-])c2)c(C)c1 (stereo not given),> 100000,5.91,6.04
O=[N+]([O-])c1cccc(C(Nc2nccs2)c2ccc3cccnc3c2O)c1 (stereo not given),16100,6.70,6.53
CCCc1c2ccc(C)n2cc[n+]1CC(=O)c1ccc(OC)cc1,> 100000,5.91,6.09
CCOC(=O)C1=C(C)NC2=C(C(=O)CC(C)(C)C2)C1c1ccccn1 (stereo not given),> 100000,5.90,< 4.90
Clc1cccc(Nc2nc(NCc3ccco3)c3ccccc3n2)c1,16000,6.69,6.95
COc1cccc(NC(=O)c2sc3ncn(CC(=O)N4CCN(c5ccccn5)CC4)c(=O)c3c2C)c1,> 100000,5.91,< 4.90
COc1ccc(N)cc1NC(=O)c1ccc(Cl)cc1Cl,6990,7.06,< 6.05
COc1ccc([N+](=O)[O-])cc1C=NNc1nc(Nc2ccc([N+](=O)[O-])cc2)nc(N2CCN(C)CC2)n1,30700,6.41,6.07
N#CC(=Cn1cc(Cc2ccc(Cl)cc2Cl)c2ccccc21)c1nn(CCO)c(N)c1C#N,75000,6.04,6.20
CC(Sc1nnc2c3ccccc3n(Cc3ccccc3)c2n1)C(=O)N1CCN(C(=O)C(c2ccccc2)c2ccccc2)C(C)C1 (stereo not given),> 10000,6.90,6.04
CCOC(=O)c1c(C)[nH]c2c1cc(O)c1ccccc12,> 10000,6.90,7.01
CCCSc1nc(N)c2c3c(sc2n1)CN(CCC)CC3,> 100000,5.91,5.85
CCOC(=O)c1cnc2ccc(OC)cc2c1Cl,> 100000,5.90,5.56
CCOC(=O)C1CCN(C(=S)Nc2ccc3nsnc3c2)CC1,30300,6.43,6.46
CCC(C)NC(=O)c1cc(NC(=O)c2cccc(Cl)c2)ccc1N1CCCCC1 (stereo not given),15400,6.71,< 5.79
COc1ccccc1C(NC(=O)c1cc(OC)c(OC)c(OC)c1)c1cc(Cl)c2cccnc2c1O (stereo not given),> 100000,5.91,5.66
CCOC(=O)c1ccc(NC(=O)c2ccc(S(=O)(=O)N3CC(C)CC(C)C3)cc2)cc1 (stereo not given),> 100000,5.91,6.18
O=c1c2cnn(-c3ccccc3)c2nc(-c2ccccc2F)n1-c1ccc(Br)cc1,> 100000,5.91,5.17
COc1cccc(Cn2c(C)nc3cc(NC(=O)Nc4ccccc4)c(C)nc32)c1,> 13100,6.79,< 6.35
O=C1c2ccccc2C2=Nc3ccccc3SC(c3ccccc3F)C12 (stereo not given),22900,6.56,6.68
CCN1CCN(c2c(C(=O)c3ccccc3)cnc3cc(OC)c(OC)cc23)CC1,> 100000,5.91,5.52
CN(C)c1ccc(C=NNc2ncnc3nc[nH]c23)cc1,11000,6.86,6.78
COc1ccc(-c2noc(N3CCc4ccccc4C3)n2)cc1,> 10000,6.90,6.70
